Legend:
DPAP1 [1] = biological target: T1, DPAP1 (Plasmodium falciparum, UniProt Q8IIJ9); assay: biochemical; design: species or system P. falciparum parasite lysate; continuous fluorogenic assay, time-dependent inactivation of DPAP1 in diluted parasite lysate, Pro-Arg-AMC 20 uM; conditions: for kinact: read-out: DPAP1 / k inact ·10^3; for kinact/KI: read-out: DPAP1 / k inact/K i ·10^−3 (M ^−1·s^−1)
T1 sequence (Q8IIJ9 28-209): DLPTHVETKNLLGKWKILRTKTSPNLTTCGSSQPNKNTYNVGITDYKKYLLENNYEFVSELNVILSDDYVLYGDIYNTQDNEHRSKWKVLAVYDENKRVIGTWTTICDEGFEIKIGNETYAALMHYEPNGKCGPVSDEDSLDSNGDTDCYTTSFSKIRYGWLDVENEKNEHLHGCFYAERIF
T1 sequence (Q8IIJ9 370-599): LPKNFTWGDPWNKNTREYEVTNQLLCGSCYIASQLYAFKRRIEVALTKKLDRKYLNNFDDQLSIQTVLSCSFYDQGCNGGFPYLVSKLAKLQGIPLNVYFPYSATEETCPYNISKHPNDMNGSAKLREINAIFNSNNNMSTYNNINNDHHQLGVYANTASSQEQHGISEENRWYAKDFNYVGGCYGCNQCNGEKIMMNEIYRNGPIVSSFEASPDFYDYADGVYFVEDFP
T1 sequence (Q8IIJ9 600-700): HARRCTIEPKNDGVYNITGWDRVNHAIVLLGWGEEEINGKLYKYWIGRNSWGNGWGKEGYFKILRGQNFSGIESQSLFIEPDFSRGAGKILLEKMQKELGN
Experimental: (§1) Inhibition of DPAP1 was directly measured in parasite lysates diluted 100‐fold in assay buffer using the DPAP1‐selective substrate Pro‐Arg‐AMC 42; 0.2 nM of […] was used for these inhibition studies. Note that because DPAP1 inhibition was directly measured in parasite lysates, inhibitors might have been partially inactivated through the action of aminopeptidases present in the lysates during the course of the assay. Therefore, the potency of the inhibitors might have been underestimated. […] The data were analysed according to the irreversible inhibition model shown in Eqn. 1. First, the progress curves (fluorescent units vs. time) were fitted to Eqn. 5, where F is the measured fluorescence at time t, F 0 the initial fluorescence, V 0 the initial turnover rate, and k obs the observed […] rate constant of inhibition measured at each inhibitor concentration 64.

CatC (bovine) = biological target: T2, CatC (bovine) (Bos taurus, UniProt Q3ZCJ8); assay: biochemical; design: continuous fluorogenic assay, time-dependent inactivation of 0.2 nM CatC, Gly-Arg-AMC 15 uM; conditions: for kinact: read-out: CatC / k inact ·10^3; for kinact/KI: read-out: CatC / k inact/K i ·10^−3 (M ^−1·s^−1)
T2 construct: gene CTSC; native, purified to homogeneity from bovine spleen
T2 sequence (Q3ZCJ8 25-134): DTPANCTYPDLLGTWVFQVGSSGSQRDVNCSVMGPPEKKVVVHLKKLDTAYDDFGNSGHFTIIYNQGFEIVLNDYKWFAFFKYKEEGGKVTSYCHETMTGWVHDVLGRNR
T2 sequence (Q3ZCJ8 231-394): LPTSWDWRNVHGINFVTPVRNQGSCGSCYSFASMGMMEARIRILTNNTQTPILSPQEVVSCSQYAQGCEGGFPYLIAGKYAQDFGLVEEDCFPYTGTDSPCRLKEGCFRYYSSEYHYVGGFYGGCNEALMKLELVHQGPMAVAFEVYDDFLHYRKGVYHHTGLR
T2 sequence (Q3ZCJ8 395-463): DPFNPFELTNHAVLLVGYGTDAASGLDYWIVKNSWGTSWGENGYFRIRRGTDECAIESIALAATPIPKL
Experimental: as §1

DPAP3 [2] = biological target: T3, DPAP3 (Plasmodium falciparum, UniProt Q8I1Y2); assay: cell-based; design: native enzyme in live parasites (mature schizonts); species or system P. falciparum mature schizonts in red blood cells; competitive activity-based probe FY01 labelling in intact parasites, in-gel fluorescence densitometry; conditions: live parasites, 30 min pretreatment
Experimental: Live parasites were treated with different concentrations of inhibitor for 30 min, and the residual level of DPAPs and FPs activities were labelled with FY01 and quantified by densitometry (Fig. 6A). […] Compounds with a P2 Trp or Tyr(NO2) are highly specific for DPAP3 in intact parasites. […] Inhibitors need to cross four membranes to reach DPAP3: the RBC, parasitophorous vacuole and parasite plasma membranes, plus the membrane of the apical organelle where DPAP3 resides 21. (The parasitophorous vacuole is a membrane‐bound structure within which the parasite grows and multiplies isolated from the RBC cytosol.) However, crossing of the parasitophorous vacuole membrane is not likely to be a limiting factor to reach DPAP3 since this membrane is generally permeable to small molecules. It is also likely that the apparent increased potency of Trp‐hPG‐VS in live parasites might be due to its accumulation into the DPAP3 acidic organelle via protonation of its free amine. However, we predict that this lysosomotropic effect likely occurs for all DPAP inhibitors presented here.  Figure 6 Selective inhibition of DPAP1 or DPAP3 in live parasites. Intact mature schizonts were pretreated for 30 min with increasing concentrations of inhibitor followed by 1 h treatment with FY01. Samples were then run in an SDS/PAGE gel and the in‐gel fluorescence measured using a fluorescence scanner. (A) Representative gel images obtained for each of the inhibitors. Fluorescent bands corresponding to the different cysteine proteases labelled by the probe are indicated with arrowheads (DPAP3, red; FPs, green; DPAP1, blue). (B) The fluorescence intensity of each of the indicated bands was quantified by densitometry using ImageJ, and the fluorescence values normalized to the DMSO control. […] Three technical replicates were performed; dose responses for a representative replicate are shown.
Target sequence in this assay (Q8I1Y2 entry or part of it): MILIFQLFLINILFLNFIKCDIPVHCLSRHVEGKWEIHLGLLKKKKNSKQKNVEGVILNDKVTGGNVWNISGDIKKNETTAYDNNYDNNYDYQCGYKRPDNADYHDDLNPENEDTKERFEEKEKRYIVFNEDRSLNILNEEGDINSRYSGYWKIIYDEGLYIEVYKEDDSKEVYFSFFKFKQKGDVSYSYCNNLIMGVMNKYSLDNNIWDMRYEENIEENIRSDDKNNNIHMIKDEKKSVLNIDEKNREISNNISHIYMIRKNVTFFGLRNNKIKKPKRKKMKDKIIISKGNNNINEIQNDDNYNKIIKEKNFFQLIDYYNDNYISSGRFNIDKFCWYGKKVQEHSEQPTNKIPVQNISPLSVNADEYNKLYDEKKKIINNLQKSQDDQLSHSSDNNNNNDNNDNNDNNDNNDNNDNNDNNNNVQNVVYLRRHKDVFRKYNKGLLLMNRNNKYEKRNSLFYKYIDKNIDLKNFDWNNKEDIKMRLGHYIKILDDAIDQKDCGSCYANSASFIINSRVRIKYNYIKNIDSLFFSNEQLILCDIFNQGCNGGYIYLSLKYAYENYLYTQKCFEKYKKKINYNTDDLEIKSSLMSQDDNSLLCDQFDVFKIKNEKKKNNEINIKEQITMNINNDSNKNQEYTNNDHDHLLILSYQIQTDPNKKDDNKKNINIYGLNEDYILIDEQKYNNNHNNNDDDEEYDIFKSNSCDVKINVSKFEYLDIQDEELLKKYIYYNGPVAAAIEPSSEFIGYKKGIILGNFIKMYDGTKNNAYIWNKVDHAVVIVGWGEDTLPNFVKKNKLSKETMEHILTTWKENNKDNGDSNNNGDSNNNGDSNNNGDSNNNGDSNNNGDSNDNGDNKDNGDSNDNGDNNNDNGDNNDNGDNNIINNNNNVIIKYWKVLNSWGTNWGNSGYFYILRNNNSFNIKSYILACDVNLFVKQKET

DPAP3 [3] = biological target: T3, DPAP3; assay: biochemical; design: gene PF3D7_0404700; recombinant, baculovirus/SF9 insect cells, purified from culture supernatant by ion exchange, Ni-NTA and size exclusion; active-site titrated; continuous fluorogenic assay, time-dependent inactivation of 0.2 nM recombinant DPAP3, Met-nLeu(o-Bzl)-ACC 2.2 uM; conditions: for kinact: read-out: DPAP3 / k inact ·10^3; for kinact/KI: read-out: DPAP3 / k inact/K i ·10^−3 (M ^−1·s^−1)
Experimental: The data were analysed according to the irreversible inhibition model shown in Eqn. 1. First, the progress curves (fluorescent units vs. time) were fitted to Eqn. 5, where F is the measured fluorescence at time t, F 0 the initial fluorescence, V 0 the initial turnover rate, and k obs the observed […] rate constant of inhibition measured at each inhibitor concentration 64. […] The inhibition constants are reported in Fig. 3C and Table 2 (See also Fig. S2 for representative fits). Only one inhibitor, containing an amino‐1‐methyl‐benzyl (Amb) group in P2, was not able to inhibit DPAP3 in a time‐dependent manner under our assay conditions (Fig. 3D). This is probably due to the fact that this extended and rigid P2 AA (Fig. 3E) might prevent proper positioning of the [compound left out] group into the active site of DPAP3 to allow covalent modification of the catalytic cysteine. For this compound, a K i value for reversible inhibition was measured.
Target sequence in this assay (Q8I1Y2 entry or part of it): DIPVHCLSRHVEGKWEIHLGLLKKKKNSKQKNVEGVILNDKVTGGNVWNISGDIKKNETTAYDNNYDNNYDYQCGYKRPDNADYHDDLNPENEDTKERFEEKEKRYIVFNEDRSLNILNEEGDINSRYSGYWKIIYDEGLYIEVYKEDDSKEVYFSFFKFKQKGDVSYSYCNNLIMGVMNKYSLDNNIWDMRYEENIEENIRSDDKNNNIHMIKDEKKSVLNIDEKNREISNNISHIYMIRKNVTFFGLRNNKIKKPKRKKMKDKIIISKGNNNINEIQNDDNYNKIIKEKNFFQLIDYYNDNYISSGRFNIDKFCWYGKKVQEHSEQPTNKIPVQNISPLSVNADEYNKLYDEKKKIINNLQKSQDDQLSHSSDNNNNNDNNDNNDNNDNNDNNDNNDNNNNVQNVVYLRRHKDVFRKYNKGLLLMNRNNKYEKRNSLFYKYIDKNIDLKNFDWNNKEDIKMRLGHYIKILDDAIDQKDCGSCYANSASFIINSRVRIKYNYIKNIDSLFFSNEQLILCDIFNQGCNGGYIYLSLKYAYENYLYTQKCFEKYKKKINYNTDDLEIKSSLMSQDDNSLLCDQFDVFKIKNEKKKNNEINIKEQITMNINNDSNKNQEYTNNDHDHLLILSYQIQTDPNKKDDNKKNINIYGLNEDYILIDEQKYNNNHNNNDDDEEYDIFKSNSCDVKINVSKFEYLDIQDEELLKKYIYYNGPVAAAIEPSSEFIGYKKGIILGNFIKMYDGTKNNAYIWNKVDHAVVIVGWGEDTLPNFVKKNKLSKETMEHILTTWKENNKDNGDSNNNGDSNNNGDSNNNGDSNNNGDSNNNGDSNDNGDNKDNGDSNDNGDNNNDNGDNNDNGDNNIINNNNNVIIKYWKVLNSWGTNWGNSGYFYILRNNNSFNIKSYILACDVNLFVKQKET

FP1 = biological target: T4, FP1 (Plasmodium falciparum, UniProt P25805); assay: cell-based; design: species or system P. falciparum mature schizonts in red blood cells; competitive activity-based probe FY01 labelling in intact parasites, in-gel fluorescence densitometry; conditions: live parasites, 30 min pretreatment
T4 construct: native falcipain 1 in live parasites (mature schizonts)
T4 sequence (P25805 whole entry): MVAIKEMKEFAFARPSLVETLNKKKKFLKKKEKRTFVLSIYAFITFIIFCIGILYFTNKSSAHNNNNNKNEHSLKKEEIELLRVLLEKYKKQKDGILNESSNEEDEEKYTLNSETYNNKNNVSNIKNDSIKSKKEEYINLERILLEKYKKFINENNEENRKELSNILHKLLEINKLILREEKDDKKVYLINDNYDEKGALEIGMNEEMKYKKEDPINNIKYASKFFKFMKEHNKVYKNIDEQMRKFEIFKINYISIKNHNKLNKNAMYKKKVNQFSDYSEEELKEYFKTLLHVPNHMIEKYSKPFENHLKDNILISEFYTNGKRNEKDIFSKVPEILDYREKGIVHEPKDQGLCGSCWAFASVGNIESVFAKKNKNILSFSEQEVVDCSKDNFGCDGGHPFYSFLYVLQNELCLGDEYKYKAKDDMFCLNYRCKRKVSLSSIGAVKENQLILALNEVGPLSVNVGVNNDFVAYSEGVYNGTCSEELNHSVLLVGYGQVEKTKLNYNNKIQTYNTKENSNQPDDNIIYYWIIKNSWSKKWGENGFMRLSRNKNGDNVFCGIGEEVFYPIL
Experimental: (§2) Live parasites were treated with different concentrations of inhibitor for 30 min, and the residual level of DPAPs and FPs activities were labelled with FY01 and quantified by densitometry (Fig. 6A). […] Compounds with a P2 Trp or Tyr(NO2) are highly specific for DPAP3 in intact parasites. […] Inhibitors need to cross four membranes to reach DPAP3: the RBC, parasitophorous vacuole and parasite plasma membranes, plus the membrane of the apical organelle where DPAP3 resides 21. (The parasitophorous vacuole is a membrane‐bound structure within which the parasite grows and multiplies isolated from the RBC cytosol.) However, crossing of the parasitophorous vacuole membrane is not likely to be a limiting factor to reach DPAP3 since this membrane is generally permeable to small molecules. It is also likely that the apparent increased potency of Trp‐hPG‐VS in live parasites might be due to its accumulation into the DPAP3 acidic organelle via protonation of its free amine. However, we predict that this lysosomotropic effect likely occurs for all DPAP inhibitors presented here. […] Samples were then run in an SDS/PAGE gel and the in‐gel fluorescence measured using a fluorescence scanner. […] (B) The fluorescence intensity of each of the indicated bands was quantified by densitometry using ImageJ, and the fluorescence values normalized to the DMSO control. […]

DPAP1 [4] = biological target: T5, DPAP1 (Plasmodium falciparum, UniProt Q8IIJ9); assay: cell-based; design: species or system P. falciparum mature schizonts in red blood cells; competitive activity-based probe FY01 labelling in intact parasites, in-gel fluorescence densitometry; conditions: live parasites, 30 min pretreatment
T5 construct: native enzyme in live parasites (mature schizonts)
T5 sequence (Q8IIJ9 1-700): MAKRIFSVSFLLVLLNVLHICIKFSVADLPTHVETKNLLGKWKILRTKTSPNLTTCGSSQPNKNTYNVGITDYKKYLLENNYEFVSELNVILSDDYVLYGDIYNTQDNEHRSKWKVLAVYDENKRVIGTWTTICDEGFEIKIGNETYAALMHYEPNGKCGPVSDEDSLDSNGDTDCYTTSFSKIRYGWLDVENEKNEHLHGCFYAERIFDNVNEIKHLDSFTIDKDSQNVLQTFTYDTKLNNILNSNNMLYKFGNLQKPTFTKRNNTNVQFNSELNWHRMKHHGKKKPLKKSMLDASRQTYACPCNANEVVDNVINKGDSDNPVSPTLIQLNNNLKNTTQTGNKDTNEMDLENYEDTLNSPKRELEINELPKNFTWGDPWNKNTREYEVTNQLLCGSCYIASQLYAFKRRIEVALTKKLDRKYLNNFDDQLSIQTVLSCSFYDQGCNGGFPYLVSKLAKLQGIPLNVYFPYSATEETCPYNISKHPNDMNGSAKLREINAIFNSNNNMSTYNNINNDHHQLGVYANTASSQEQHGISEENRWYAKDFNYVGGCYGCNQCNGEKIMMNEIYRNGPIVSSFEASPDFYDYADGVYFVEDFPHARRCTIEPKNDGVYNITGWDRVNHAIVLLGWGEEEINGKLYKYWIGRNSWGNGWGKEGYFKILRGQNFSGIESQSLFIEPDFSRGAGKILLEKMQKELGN
Experimental: as §2

Row | Structure (SMILES) | kinact (DPAP1 [1]) [s⁻¹] | kinact/KI (DPAP1 [1]) [M⁻¹ s⁻¹] | kinact (CatC (bovine)) [s⁻¹] | kinact/KI (CatC (bovine)) [M⁻¹ s⁻¹] | IC50 (DPAP3 [2]) [nM] | kinact (DPAP3 [3]) [s⁻¹] | kinact/KI (DPAP3 [3]) [M⁻¹ s⁻¹] | IC50 (FP1) [nM] | IC50 (DPAP1 [4]) [nM]
1 | N[C@@H](Cc1c[nH]c2ccccc12)C(=O)N[C@H](/C=C/S(=O)(=O)c1ccccc1)CCCCOCc1ccccc1 [L‐Trp‐nLeu(o‐Bzl)‐VS] | 0.0022 ± 0.0001 | 5800 ± 600 | 0.00174 ± 3e-05 | 355000 ± 18000 | 760 ± 150 | 0.0032 ± 0.0003 | 826000 ± 193000 |  | 
2 | O=C(N[C@H](C=CS(=O)(=O)c1ccccc1)CCc1ccccc1)[C@@H]1CCCN1 [Pro‐hPhe‐VS] | 0.0021 ± 0.0002 | 470000 ± 35000 | 0.00145 ± 7e-05 | 42000 ± 5000 |  | 0.0035 ± 0.0002 | 4100 ± 300 |  | 
3 | N[C@@H](Cc1ccc(O)c([N+](=O)[O-])c1)C(=O)N[C@H](C=CS(=O)(=O)c1ccccc1)CCc1ccccc1 [Tyr(NO2)‐hPhe‐VS] | 0.0038 ± 0.001 | 150 ± 50 | 0.0032 ± 0.0006 | 54 ± 8 |  | 0.00226 ± 5e-05 | 950000 ± 74000 |  | 
4 | N[C@@H](Cc1ccc(O)c([N+](=O)[O-])c1)C(=O)N[C@H](/C=C/S(=O)(=O)c1ccccc1)CCCCOCc1ccccc1 [Tyr(NO2)‐nLeu(o‐Bzl)‐VS] | 0.0026 ± 0.0003 | 1100 ± 300 | 0.0029 ± 0.0002 | 380 ± 50 | 730 ± 170 | 0.0027 ± 0.0002 | 51000 ± 10000 |  | 
5 | O=C(N[C@H](/C=C/S(=O)(=O)c1ccccc1)CCc1ccccc1)[C@@H]1CCCCN1 [hPro‐hPhe‐VS] | 0.0048 ± 0.0006 | 1.23e+06 ± 400000 | 0.00167 ± 8e-05 | 76000 ± 800 | 160 ± 50 | 0.0021 ± 0.0001 | 69000 ± 13000 | 350 ± 80 | 80 ± 7
6 | O=C(N[C@H](/C=C/S(=O)(=O)c1ccccc1)CCCCOCc1ccccc1)[C@@H]1CCCCN1 [hPro‐nLeu(o‐Bzl)‐VS] | 0.0029 ± 0.0003 | 3.56e+06 ± 150000 | 0.00167 ± 3e-05 | 150000 ± 6000 |  | 0.002 ± 0.0001 | 53000 ± 6500 |  | 
7 | CCC[C@H](N)C(=O)N[C@H](/C=C/S(=O)(=O)c1ccccc1)CCc1ccccc1 [nVal‐hPhe‐VS] | 0.002 ± 0.0001 | 3.16e+06 ± 750000 | 0.0022 ± 0.0001 | 5.83e+06 ± 970000 |  | 0.0026 ± 0.0004 | 940000 ± 160000 |  | 
